This is an account of results in ChEMBL document CHEMBL1124402, “Potent angiotensin II antagonists with non-beta-branched amino acids in position 5” (1989).

Square brackets hold non-standard residues; d marks the D form. Peptide text beside a SMILES is read from it. Sar = CNCC(=O)O

What is called pA2 is a measure of antagonist potency on a negative log scale. Lower therefore signals lower antagonist potency.

One experiment is filed under the species Oryctolagus cuniculus. The experiment can be described thus: pA2 value was evaluated in rabbit aorta assay. Format: functional.
The subject of a further experiment is Rattus norvegicus. The experiment can be described thus: In vivo angiotensin II like activity expressed in rat blood pressure assay measured as increase in BP by 1 ug bolus intravenous injection of compound. Format: functional.

For the molecule `CC[C@H](C)[C@H](NC(=O)[C@@H]1CCCN1C(=O)[C@H](Cc1c[nH]cn1)NC(=O)[C@@H](NC(=O)[C@H](Cc1ccc(O)cc1)NC(=O)[C@@H](NC(=O)[C@H](CCCN=C(N)N)NC(=O)CNC)C(C)C)[C@@H](C)OC)C(=O)O` (H-[Sar]RVYT(Me)HPI-OH), the pA2 in the experiment listed under Oryctolagus cuniculus came to 9.7. The BP with Rattus norvegicus is on record as 7.5 mmHg.
